In ChEMBL document CHEMBL1127025, “(E)-3-[[[[6-(2-carboxyethenyl)-5-[[8-(4- methoxyphenyl)octyl]oxy]-2-pyridinyl]-methyl]thio]methyl]benzoic acid: a novel high-affinity leukotriene B4 receptor antagonist” (J Med Chem, 1993):

Tests used:
[1] = target: T1, Leukotriene B4 receptor 1 (Homo sapiens, UniProt Q15722); test: Binding affinity against LTB4 receptors in human PMNs
[2] = system: Mus musculus; test: Effective dose for edematous response after administration of 1 mg of arachidonic acid in mouse ear; type: functional
[3] = system: Mus musculus; test: Effective dose for neutrophil infiltration after administration of 1 mg of arachidonic acid in mouse ear; type: functional
[4] = organism: Homo sapiens; test: Inhibitory concentration against LTB4 induced degranulation in human PMNs; type: functional
[5] = organism: Mus musculus; test: Inhibition of LTB4-induced PMN infiltration at 250 ng/mL in mouse; type: functional
[6] = target: T1, Leukotriene B4 receptor 1; test: Inhibitory concentration against LTB4 receptors in human PMNs

T1 sequence (Q15722 whole entry): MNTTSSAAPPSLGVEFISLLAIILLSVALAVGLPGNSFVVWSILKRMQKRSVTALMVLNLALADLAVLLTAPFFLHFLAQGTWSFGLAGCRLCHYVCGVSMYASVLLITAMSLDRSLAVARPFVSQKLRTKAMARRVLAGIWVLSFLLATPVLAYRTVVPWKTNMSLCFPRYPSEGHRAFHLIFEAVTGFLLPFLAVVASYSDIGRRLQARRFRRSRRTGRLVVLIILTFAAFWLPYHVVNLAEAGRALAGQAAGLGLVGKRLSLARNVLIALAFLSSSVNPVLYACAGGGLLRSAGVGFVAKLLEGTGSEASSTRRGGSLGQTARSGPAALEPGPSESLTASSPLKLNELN

| Structure (SMILES) | Ki [1] | ED50 [2] | ED50 [3] | IC50 [4] | ED50 [5] | IC50 [6] |
| --- | --- | --- | --- | --- | --- | --- |
| CCCCCCCCCCOc1ccc(CC(O)c2cccc(C(=O)O)c2)nc1/C=C/C(=O)O (configuration not stated) | 280 nM |  |  |  |  |  |
| COc1ccc(CCCCCCCCOc2ccc(CSCc3cccc(C(=O)O)c3)nc2/C=C/C(=O)O)cc1 | 7.1 nM | 0.58 mg ear-1 | 0.39 mg ear-1 | 268 nM | 7.1 mg/kg | 131 nM |
